Measured values: US20240173419A1, “CDK2 DEGRADERS AND USES THEREOF” (Kymera Therapeutics, Inc., priority 2022, published 2024)
Each block holds one compound with its values, some of them ahead of it.

Biological target: T1, CDK2 (Homo sapiens, UniProt P24941)
T1 construct: endogenous in cells; host or cells: MKN1 cells
Assay: CDK2 degradation in MKN1 cells (AlphaLISA)
Assay type: cell-based
Design: key to CDK2 degradation 14 h: Mean external-Abs DC50 (nM): A (<100 nM); B (≥100-500 nM); C (>500-1000 nM); D (>1000 nM); E (not achieved)
Settings: 14 h incubation; for DC50: read-out: CDK2 degradation 14 h: Mean external-Abs DC50
Procedure, shortened: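 DC50 from four-parameter logistic fit of AlphaLISA CDK2 signal, corrected for no-cell wells. Lysates came from MKN1 cells, 2e4 per well, exposed 14 h at 37° C to compound at 0.001 nM-10 μM (1:5 series, 11 doses) in 0.1% DMSO.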

Structure (SMILES): Cc1cc(S(=O)(=O)C2CC3(CCN(C(=O)COC4CN(c5ccc6c(c5F)n(C)c(=O)n6C5CCC(=O)NC5=O)C4)CC3)C2)ccc1Nc1ncc2ccc(=O)n(C3CCCC3)c2n1 (stereo not drawn) [I-259]
CDK2 degradation 14 h: Average Dmax %: D (D (<25%))
DC50: > 1 µM

Structure (SMILES): Cc1cc(S(=O)(=O)C2CC3(CCN(CC4CCN(c5cccc(NC6CCC(=O)NC6=O)c5)CC4)CC3)C2)ccc1Nc1ncc2cc(Cl)c(=O)n(C3CCCC3)c2n1 (stereo not drawn) [I-87]
CDK2 degradation 14 h: Average Dmax %: A (A (>75% o))
DC50: < 0.1 µM

Structure (SMILES): CCOc1cc(NC2CCC(=O)NC2=O)ccc1N1CCC(CN2CCC3(CC2)CC(S(=O)(=O)c2ccc(Nc4ncc5cc(Cl)c(=O)n(C6CCCC6)c5n4)c(C)c2)C3)CC1 (stereo not drawn) [I-309]
CDK2 degradation 14 h: Average Dmax %: A (A (>75% o))
DC50: 0.1 to 0.5 µM

Structure (SMILES): Cc1cc(S(=O)(=O)N2CCC(Cn3cnc4c3CCN(c3ccc5c(c3F)n(C)c(=O)n5C3CCC(=O)NC3=O)C4)CC2)ccc1Nc1ncc2ccc(=O)n(C3CCCC3)c2n1 (stereo not drawn) [I-280]
CDK2 degradation 14 h: Average Dmax %: C (C (>25% -50%))
DC50: > 1 µM

Structure (SMILES): Cc1cc(S(=O)(=O)NC2CCC(N3CCN(CC4CN(c5cccc6c5n(C)c(=O)n6C5CCC(=O)NC5=O)C4)CC3)CC2)ccc1Nc1ncc(C(F)(F)F)c(N2CCCC(C)(O)C2)n1 (stereo not drawn) [I-686]
CDK2 degradation 14 h: Average Dmax %: A (A (>75% o))
DC50: < 0.1 µM

Structure (SMILES): COc1cc(N2CCC(CN3CCC4(CC3)CC(S(=O)(=O)c3ccc(Nc5ncc6cc(Cl)c(=O)n(C7CCCC7)c6n5)c(C)c3)C4)CC2)ccc1NC1CCC(=O)NC1=O (stereo not drawn) [I-72]
CDK2 degradation 14 h: Average Dmax %: A (A (>75% o))
DC50: 0.1 to 0.5 µM

Structure (SMILES): Cc1cc(S(=O)(=O)N2CCC(OCC#Cc3cccc4c3n(C)c(=O)n4C3CCC(=O)NC3=O)CC2)ccc1Nc1ncc2ccc(=O)n(C3CCCC3)c2n1 (stereo not drawn) [I-447]
CDK2 degradation 14 h: Average Dmax %: D (D (<25%))
DC50: > 1 µM

Structure (SMILES): Cc1cc(S(=O)(=O)C2CC3(CCN(CC4CCN(c5cccc(NC6CCC(=O)NC6=O)c5C)CC4)CC3)C2)ccc1Nc1ncc2cc(Cl)c(=O)n(C3CCCC3)c2n1 (stereo not drawn) [I-332]
CDK2 degradation 14 h: Average Dmax %: A (A (>75% o))
DC50: 0.1 to 0.5 µM

Structure (SMILES): Cc1cc(S(=O)(=O)CCCO[C@H]2CC[C@H](CN3CCC(c4ccc5c(c4)n(C)c(=O)n5C4CCC(=O)NC4=O)CC3)CC2)ccc1Nc1ncc(C(F)(F)F)c(-c2cnn(C)c2)n1 (stereo partly drawn) [I-68]
DC50: < 0.1 µM

Structure (SMILES): Cc1cc(S(=O)(=O)C2CC3(CCN(CC4CCN(c5cccc6c(N7CCC(=O)NC7=O)cncc56)CC4)CC3)C2)ccc1Nc1ncc2cc(Cl)c(=O)n(C3CCCC3)c2n1 [I-82]
CDK2 degradation 14 h: Average Dmax %: A (A (>75% o))
DC50: < 0.1 µM

Structure (SMILES): Cc1cc(S(=O)(=O)NCCOCC2CCN(c3ccc(N4CCC(=O)NC4=O)cc3)CC2)ccc1Nc1ncc2cc(Cl)c(=O)n(C3CCCC3)c2n1 [I-409]
CDK2 degradation 14 h: Average Dmax %: C (C (>25% -50%))
DC50: > 1 µM

Structure (SMILES): Cc1cc(S(=O)(=O)N2CCC(CN(C)C3CCN(Cc4cccc5c4n(C)c(=O)n5C4CCC(=O)NC4=O)CC3)CC2)ccc1Nc1ncc2ccc(=O)n(C3CCCC3)c2n1 (stereo not drawn) [I-449]
CDK2 degradation 14 h: Average Dmax %: A (A (>75% o))
DC50: < 0.1 µM

Structure (SMILES): Cc1cc(S(=O)(=O)N2CC3(CC(OCCN4CCC(c5ccc6c(c5)n(C)c(=O)n6C5CCC(=O)NC5=O)CC4)C3)C2)ccc1Nc1ncc2ccc(=O)n(C3CCCC3)c2n1 (stereo not drawn) [I-463]
CDK2 degradation 14 h: Average Dmax %: C (C (>25% -50%))
CDK2 degradation 14 h: Mean external-Abs DC50 (nM): E

Structure (SMILES): Cc1cc(S(=O)(=O)C2CC3(CCN(CC4CCN(c5ccc6c(c5F)n(C)c(=O)n6C5CCC(=O)NC5=O)CC4)CC3)C2)ccc1Nc1ncc(C(F)(F)F)c(C2CCC(O)(C(C)C)CC2)n1 (stereo not drawn) [I-516]
CDK2 degradation 14 h: Average Dmax %: B (B (>50% -75%))
DC50: > 1 µM

Structure (SMILES): Cc1cc(S(=O)(=O)N(C)CCO[C@H]2CC[C@H](CN3CCC(c4ccc5c(c4)n(C)c(=O)n5C4CCC(=O)NC4=O)CC3)CC2)ccc1Nc1ncc2cc(Cl)c(=O)n(C3CCCC3)c2n1 (stereo partly drawn) [I-435]
CDK2 degradation 14 h: Average Dmax %: A (A (>75% o))
DC50: < 0.1 µM

Structure (SMILES): Cc1cc(S(=O)(=O)NCCOC2CCC(CN3CCN(c4ccc(NC5CCC(=O)NC5=O)cc4C)CC3)CC2)ccc1Nc1ncc2cc(Cl)c(=O)n(C3CCCC3)c2n1 (stereo not drawn) [I-308]
CDK2 degradation 14 h: Average Dmax %: A (A (>75% o))
DC50: < 0.1 µM

Structure (SMILES): Cc1cc(S(=O)(=O)N2CCC(CN(C)C3CCN(c4cccc5c4n(C)c(=O)n5C4CCC(=O)NC4=O)CC3)CC2)ccc1Nc1ncc2cc(Cl)c(=O)n(C3CCCC3)c2n1 (stereo not drawn) [I-442]
CDK2 degradation 14 h: Average Dmax %: A (A (>75% o))
DC50: < 0.1 µM

Structure (SMILES): Cc1cc(S(=O)(=O)C2CC3(CCN(CC4CCN(c5ccc6c(N7CCC(=O)NC7=O)nn(C)c6c5F)CC4)CC3)C2)ccc1Nc1ncc2cc(Cl)c(=O)n(C3CCCC3)c2n1 [I-325]
CDK2 degradation 14 h: Average Dmax %: A (A (>75% o))
DC50: < 0.1 µM

Structure (SMILES): Cc1cc(S(=O)(=O)N2CCC(C(F)(F)CN3CCN(c4cccc5c4n(C)c(=O)n5C4CCC(=O)NC4=O)CC3)CC2)ccc1Nc1ncc2cc(Cl)c(=O)n(C3CCCC3)c2n1 (stereo not drawn) [I-163]
CDK2 degradation 14 h: Average Dmax %: B (B (>50% -75%))
DC50: > 1 µM

The next lines start with the values.

CDK2 degradation 14 h: Average Dmax %: D (D (<25%))
DC50: > 1 µM
Structure (SMILES): Cc1cc(S(=O)(=O)C2CC3(CCN(CC4CCN(c5ccc6c(c5F)n(C)c(=O)n6C5CCC(=O)NC5=O)CC4)CC3)C2)ccc1Nc1ncc(C2CC2)c(N2CCCC(C)(O)C2)n1 (stereo not drawn) [I-839]

CDK2 degradation 14 h: Average Dmax %: B (B (>50% -75%))
DC50: < 0.1 µM
Structure (SMILES): Cc1cc(S(=O)(=O)NC2CCC(CCN3CCN(c4ccc(C5CCC(=O)NC5=O)cc4F)CC3)CC2)ccc1Nc1ncc2c(n1)N(C1CCCC(O)C1)C(=O)C21CC1 (stereo not drawn) [I-939]

CDK2 degradation 14 h: Average Dmax %: B (B (>50% -75%))
DC50: 0.1 to 0.5 µM
Structure (SMILES): CC1(O)CCCN(c2nc(Nc3ccc(S(=O)(=O)NC4CCC(CCN5CCN(c6ccc(C7CCC(=O)NC7=O)c(F)c6)CC5)CC4)cc3C(F)F)ncc2C(F)(F)F)C1 (stereo not drawn) [I-1076]

CDK2 degradation 14 h: Average Dmax %: D (D (<25%))
DC50: > 1 µM
Structure (SMILES): Cc1cc(S(=O)(=O)C2CC3(CCN(CC4CCN(c5ccc6c(c5F)n(C)c(=O)n6C5CCC(=O)NC5=O)CC4)CC3)C2)ccc1Nc1nc(N2CCCC(C)(O)C2)c2c(ccn2C)n1 (stereo not drawn) [I-835]

CDK2 degradation 14 h: Average Dmax %: B (B (>50% -75%))
DC50: 0.1 to 0.5 µM
Structure (SMILES): CC1(O)CCCN(c2nc(Nc3ccc(S(=O)(=O)NC4CC5CCC(C4)N5CC4CCN(c5ccc(C6CCC(=O)NC6=O)c(F)c5)CC4)cc3F)ncc2C(F)(F)F)C1 (stereo not drawn) [I-1057]

CDK2 degradation 14 h: Average Dmax %: D (D (<25%))
DC50: > 1 µM
Structure (SMILES): CC1(O)CCCN(c2nc(Nc3ccc(S(=O)(=O)N4CCN(CC5CCC(Oc6cccc(C7CCC(=O)NC7=O)c6)CC5)CC4)cc3C(F)F)ncc2C(F)(F)F)C1 (stereo not drawn) [I-1043]

CDK2 degradation 14 h: Average Dmax %: A (A (>75% o))
DC50: < 0.1 µM
Structure (SMILES): Cc1cc(S(=O)(=O)NC2CCC(CN3CCN(c4cccc5c4n(C)c(=O)n5C4CCC(=O)NC4=O)CC3)CC2)ccc1Nc1ncc(C(F)(F)F)c(N2CCCC(C)(O)C2)n1 (stereo not drawn) [I-1145]

CDK2 degradation 14 h: Average Dmax %: C (C (>25% -50%))
DC50: > 1 µM
Structure (SMILES): Cc1cc(S(=O)(=O)NC2CCC(CN3CCN(c4cccc(C5CCC(=O)NC5=O)c4)CC3)CC2)ccc1Nc1ncc(C(F)(F)F)c(N2CCCC(C)(O)C2)n1 (stereo not drawn) [I-929]

CDK2 degradation 14 h: Average Dmax %: A (A (>75% o))
DC50: < 0.1 µM
Structure (SMILES): Cc1cc(S(=O)(=O)NC2CCC(CN3CCN(c4ccc(C5CCC(=O)NC5=O)c(Cl)c4)CC3)CC2)ncc1Nc1ncc(C(F)(F)F)c(N2CCCC(C)(O)C2)n1 (stereo not drawn) [I-1047]

CDK2 degradation 14 h: Average Dmax %: D (D (<25%))
DC50: > 1 µM
Structure (SMILES): Cc1cc(S(=O)(=O)C2CC3(CCN(CC4CCN(c5cccc6c5n(C)c(=O)n6C5CCC(=O)NC5=O)CC4)CC3)C2)ccc1Nc1ncc2cc(Cl)c(=O)n(C(C)C(C)(C)O)c2n1 (stereo not drawn) [I-838]

CDK2 degradation 14 h: Average Dmax %: A (A (>75% o))
DC50: < 0.1 µM
Structure (SMILES): COCc1cc(S(=O)(=O)NC2CCC(CN3CCN(c4ccc(C5CCC(=O)NC5=O)c(F)c4)CC3)CC2)ccc1Nc1ncc(C(F)(F)F)c(N2CCCC(C)(O)C2)n1 (stereo not drawn) [I-1070]

CDK2 degradation 14 h: Average Dmax %: A (A (>75% o))
DC50: < 0.1 µM
Structure (SMILES): Cc1cc(S(=O)(=O)NC(C)COC2CCC(CN3CCN(c4cccc5c4n(C)c(=O)n5C4CCC(=O)NC4=O)CC3)CC2)ccc1Nc1ncc(C(F)(F)F)c(N2CCCC(C)(O)C2)n1 (stereo not drawn) [I-851]

CDK2 degradation 14 h: Average Dmax %: C (C (>25% -50%))
DC50: > 1 µM
Structure (SMILES): Cc1cc(S(=O)(=O)NC2CCC(CN3CCN(c4cccc(C5CCC(=O)NC5=O)c4)CC3)CC2)ccc1Nc1ncc2c(n1)N(C1CCCC(O)C1)C(=O)C21CC1 (stereo not drawn) [I-938]

CDK2 degradation 14 h: Average Dmax %: A (A (>75% o))
DC50: < 0.1 µM
Structure (SMILES): Cc1cc(S(=O)(=O)NC2CCC(CN3CCN(c4cc(F)cc(NC5CCC(=O)NC5=O)c4)CC3)CC2)ccc1Nc1ncc(C(F)(F)F)c(N2CCCC(C)(O)C2)n1 (stereo not drawn) [I-1122]

CDK2 degradation 14 h: Average Dmax %: A (A (>75% o))
DC50: < 0.1 µM
Structure (SMILES): O=C1CCC(c2ccc(N3CCC(CN4CCC(NS(=O)(=O)c5ccc(Nc6ncc7c(n6)N(C6CCCC(O)C6)C(=O)C76CC6)c(F)c5)C(F)C4)CC3)cc2F)C(=O)N1 (stereo not drawn) [I-950]

CDK2 degradation 14 h: Average Dmax %: B (B (>50% -75%))
DC50: 0.1 to 0.5 µM
Structure (SMILES): CC1(O)CCCN(c2nc(Nc3ccc(S(=O)(=O)NC4CCC(CN5CCN(c6ccc(C7CCC(=O)NC7=O)cc6)CC5)CC4)cc3C(F)(F)F)ncc2C(F)(F)F)C1 (stereo not drawn) [I-1101]
